Measurements as given in patent US5596002A, “Method of treating chloroquine-resistant malaria with aminoquinoline derivatives” (Hoffmann-La Roche Inc., priority 1993, dated 1997).
≈ marks a conversion by molar mass, not a printed value. Where two headings read alike, the source gives them in different places.

Legend:
[1] = test system: Plasmodium falciparum, chloroquine-resistant strain W2 Mef; test: activity against P. falciparum in vitro, strain W2 Mef; assay type: cell-based; conditions: 48 h-72 h, read-out: IC50 (50% growth inhibition)
Method in brief: (§1)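 IC50 values come from logit regression of radiolabelled hypoxanthine incorporation after 48 h-72 h drug exposure of asynchronous P. falciparum in human A+ red cells (0.7% parasitemia).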

[2] = test system: Plasmodium falciparum, chloroquine-resistant strain 7G8; test: activity against P. falciparum in vitro, strain 7G8; assay type: cell-based; conditions: read-out: IC50 (50% growth inhibition)
Method in brief: as §1

[3] = test system: Plasmodium falciparum, chloroquine-resistant strain ItG2 F6; test: activity against P. falciparum in vitro, strain ItG2 F6; assay type: cell-based; conditions: read-out: IC50 (50% growth inhibition)
Method in brief: as §1

[4] = test system: Plasmodium falciparum, chloroquine-sensitive strain RFMEF3; test: activity against P. falciparum in vitro, strain RFMEF3; assay type: cell-based; conditions: read-out: IC50 (50% growth inhibition)
Method in brief: as §1

[5] = test system: Plasmodium falciparum, chloroquine-resistant strain Indo; test: activity against P. falciparum in vitro, strain Indo; assay type: cell-based; conditions: read-out: IC50 (50% growth inhibition)
Method in brief: as §1

[6] = test system: Plasmodium falciparum, chloroquine-sensitive strain HB3; test: activity against P. falciparum in vitro, strain HB3; assay type: cell-based; conditions: read-out: IC50 (50% growth inhibition)
Method in brief: as §1

[7] = test system: Plasmodium falciparum, chloroquine-sensitive strain FCH5C2; test: activity against P. falciparum in vitro, strain FCH5C2; assay type: cell-based; conditions: read-out: IC50 (50% growth inhibition)
Method in brief: as §1

[8] = test system: Plasmodium falciparum, chloroquine-resistant strain RFCR3; test: activity against P. falciparum in vitro, strain RFCR3; assay type: cell-based; conditions: read-out: IC50 (50% growth inhibition)
Method in brief: as §1

[9] = test system: Plasmodium falciparum, chloroquine-sensitive strain NF54; test: activity against P. falciparum in vitro, strain NF54; assay type: cell-based; conditions: Plasmodium falciparum, read-out: IC50 (50% growth inhibition)
Method in brief: as §1

[10] = test system: Plasmodium falciparum, chloroquine-resistant strain W2; test: activity against P. falciparum in vitro, strain W2; assay type: cell-based; conditions: read-out: IC50 (50% growth inhibition)
Method in brief: as §1

[11] = test system: Plasmodium falciparum, chloroquine-sensitive strain Ro7 3; test: activity against P. falciparum in vitro, strain Ro7 3; assay type: cell-based; conditions: read-out: IC50 (50% growth inhibition)
Method in brief: as §1

[12] = test system: Plasmodium berghei (strain ANKA); test: activity against Plasmodium berghei in vivo (infected mice); conditions: for ED50: read-out: ED50 (po)
Method in brief: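 Male albino mice (~25 g, n=5) infected i.v. with P. berghei ANKA-parasitized erythrocytes, dosed once s.c. or p.o. 24 h post-infection, first at 10 mg/kg. Giemsa tail-blood smears 48 h post-treatment (D+3); GI % is parasitemia reduction versus vehicle controls; ED50/ED90 in mg/kg by nonlinear fit.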

[13] = test system: Plasmodium falciparum, chloroquine-resistant strain K1; test: activity against P. falciparum in vitro, strain K1; assay type: cell-based; conditions: Plasmodium falciparum, read-out: IC50 (50% growth inhibition)
Method in brief: as §1

[14] = chloroquine-resistant strain 7G8, 48 h-72 h
[15] = chloroquine-resistant strain ItG2 F6, 48 h-72 h
[16] = chloroquine-sensitive strain RFMEF3, 48 h-72 h
[17] = chloroquine-resistant strain Indo, 48 h-72 h
[18] = chloroquine-sensitive strain HB3, 48 h-72 h
[19] = chloroquine-sensitive strain FCH5C2, 48 h-72 h
[20] = chloroquine-resistant strain RFCR3, 48 h-72 h
[21] = chloroquine-sensitive strain NF54, 48 h-72 h
[22] = chloroquine-resistant strain W2, 48 h-72 h
[23] = chloroquine-sensitive strain Ro7 3, 48 h-72 h
[24] = mice, single administration po, dose reducing average erythrocyte infection rate by 50%
[25] = mice, single dose 10 mg/kg po, 48 hours after treatment (D+3), read-out: GI % at 10 mg/kg (po): percentage reduction in the parasitemia
[26] = mice, single dose 10 mg/kg sc, 48 hours after treatment (D+3), read-out: GI % at 10 mg/kg (sc): percentage reduction in the parasitemia
[27] = chloroquine-resistant strain K1, 48 h-72 h

SMILES | IC50 [1] [ng/mL] | IC50 [2, 14] [ng/mL] | IC50 [3, 15] [ng/mL] | IC50 [4, 16] [ng/mL] | IC50 [5, 17] [ng/mL] | IC50 [6, 18] [ng/mL] | IC50 [7, 19] [ng/mL] | IC50 [8, 20] [ng/mL] | IC50 [9, 21] [ng/mL] | IC50 [10, 22] [ng/mL] | IC50 [11, 23] [ng/mL] | ED50 [12, 24] [mg/kg] | inhibition in vivo at 10 mg/kg [12, 25] [%] | inhibition in vivo at 10 mg/kg [12, 26] [%] | IC50 [13, 27] [ng/mL] | further results
CN1CCC(Nc2ccnc3cc(Cl)ccc23)C1 (racemic) [Example 33a, (R,S)-(7-Chloro-quinolin-4-yl)-(1-methyl-pyrrolidin-3-yl)-amine] | 7 (≈ 0.0267 µM) | 9 (≈ 0.0344 µM) | 5 (≈ 0.0191 µM) | 7 (≈ 0.0267 µM) | 9 (≈ 0.0344 µM) | 7 (≈ 0.0267 µM) | 8 (≈ 0.0306 µM) | 9 (≈ 0.0344 µM) | 7 (≈ 0.0267 µM) | 9 (≈ 0.0344 µM) | 5 (≈ 0.0191 µM) | 3.3 | 99.7 | 99.9 | 8 (≈ 0.0306 µM) | 
Clc1ccc2c(N[C@@H]3CCC[C@H]3N3CCCC3)ccnc2c1 (relative stereo) [Example 11a, (1RS,2RS)-N1-(7-Chloro-quinolin-4-yl)-(2-pyrrolidin-1-yl-cyclopentyl)-amine] | 15 (≈ 0.0475 µM) | 14 (≈ 0.0443 µM) | 8 (≈ 0.0253 µM) | 7 (≈ 0.0222 µM) | 15 (≈ 0.0475 µM) | 6 (≈ 0.019 µM) | 7 (≈ 0.0222 µM) | 18 (≈ 0.057 µM) | 7 (≈ 0.0222 µM) | 17 (≈ 0.0538 µM) | 4 (≈ 0.0127 µM) | 4.5 | 99 | 99.6 | 15 (≈ 0.0475 µM) | 
CCN(CC)CCCC(C)Nc1ccnc2cc(Cl)ccc12 (centres unmarked) [Chloroquine diphosphate, reference compound] | 79 |  |  |  |  |  |  |  |  |  |  |  |  |  |  | IC50 ([2]; 7G8, 48 h): 81 ng/mL; IC50 ([3]; 48 h): 68 ng/mL; IC50 ([4]; 48 h): 14 ng/mL; IC50 ([5]; 48 h): 52 ng/mL; IC50 ([6]; HB3, 48 h): 11 ng/mL; IC50 ([7]; 48 h): 12 ng/mL; IC50 ([8]; 48 h): 130 ng/mL; IC50 ([9]; NF54, 48 h): 8 ng/mL; IC50 ([10]; W2, 48 h): 123 ng/mL; IC50 ([11]; 48 h): 8 ng/mL; ED50 ([12]; Erythrocyte, po): 2.4 mg/kg; inhibition in vivo at 10 mg/kg ([12]; po, 48 h, read-out: GI % at 10 mg/kg (po): percentage reduction in the parasitemia): 99.9%; inhibition in vivo at 10 mg/kg ([12]; sc, 48 h, read-out: GI % at 10 mg/kg (sc): percentage reduction in the parasitemia): 99.9%; IC50 ([13]; K1, 48 h): 11 ng/mL
CN1CCCC1CNc1ccnc2cc(Cl)ccc12 (centres unmarked) [Example 12a, (7-Chloro-quinolin-4-yl)-(1-methyl-pyrrolidin-2-yl-methyl)-amine] | 6 (≈ 0.0218 µM) | 8 (≈ 0.029 µM) | 5 (≈ 0.0181 µM) | 8 (≈ 0.029 µM) | 11 (≈ 0.0399 µM) | 10 (≈ 0.0363 µM) | 8 (≈ 0.029 µM) | 11 (≈ 0.0399 µM) | 7 (≈ 0.0254 µM) | 9 (≈ 0.0326 µM) | 7 (≈ 0.0254 µM) | 4.8 | 91 | 91 | 9 (≈ 0.0326 µM) | 
Clc1ccc2c(NCCCN3CCCCC3)ccnc2c1 [Example 18, (7-Chloro-quinolin-4-yl)-(3-piperidin-1-yl-propyl)-amine] | 12 (≈ 0.0395 µM) | 12 (≈ 0.0395 µM) | 7 (≈ 0.023 µM) | 8 (≈ 0.0263 µM) | 7 (≈ 0.023 µM) | 8 (≈ 0.0263 µM) | 4 (≈ 0.0132 µM) | 8 (≈ 0.0263 µM) | 4 (≈ 0.0132 µM) | 11 (≈ 0.0362 µM) | 7 (≈ 0.023 µM) | 6.9 | 83 | 96 | 14 (≈ 0.0461 µM) | 
Clc1ccc2c(NC3CCN(Cc4ccccc4)CC3)ccnc2c1 [Example 19, (1-Benzyl-piperidin-4-yl)-(7-chloro-quinolin-4-yl)-amine] | 11 (≈ 0.0313 µM) | 7 (≈ 0.0199 µM) | 6 (≈ 0.0171 µM) | 5 (≈ 0.0142 µM) | 7 (≈ 0.0199 µM) | 4 (≈ 0.0114 µM) | 5 (≈ 0.0142 µM) | 10 (≈ 0.0284 µM) | 7 (≈ 0.0199 µM) | 10 (≈ 0.0284 µM) | 3 (≈ 0.00853 µM) | 5.3 | 99 | 99.6 | 9 (≈ 0.0256 µM) | 
CC1CC(C)(C)C(CNc2ccnc3cc(Cl)ccc23)C1N (centres unmarked) [Example 20, (5-Amino-2,2,4-trimethyl-cyclopentylmethyl)-(7-chloro-quinolin-4yl)-amine] | 14 (≈ 0.044 µM) | 15 (≈ 0.0472 µM) | 7 (≈ 0.022 µM) | 4 (≈ 0.0126 µM) | 8 (≈ 0.0252 µM) | 4 (≈ 0.0126 µM) | 7 (≈ 0.022 µM) | 14 (≈ 0.044 µM) | 3 (≈ 0.00944 µM) | 11 (≈ 0.0346 µM) | 7 (≈ 0.022 µM) | 4.4 | 99.9 | 99.9 | 10 (≈ 0.0315 µM) | 
C=CCN(C)CCNc1ccnc2cc(Cl)ccc12 [Example 33, N1 -Allyl-N2-(7-chloro-quinolin-4-yl)-N1-methyl-ethane-1,2-diamine] | 15 (≈ 0.0544 µM) | 18 (≈ 0.0653 µM) | 9 (≈ 0.0326 µM) | 16 (≈ 0.058 µM) | 14 (≈ 0.0508 µM) | 15 (≈ 0.0544 µM) | 15 (≈ 0.0544 µM) | 18 (≈ 0.0653 µM) | 8 (≈ 0.029 µM) | 21 (≈ 0.0761 µM) | 10 (≈ 0.0363 µM) | 5.9 | 97 | 97 | 14 (≈ 0.0508 µM) | 
CN(C)C(C)(C)CNc1ccnc2cc(Cl)ccc12 [Example 33b, N1-(7-Chloro-quinolin-4-yl)-2,N2,N2-trimethyl-propane-1,2-diamine] | 18 (≈ 0.0648 µM) | 18 (≈ 0.0648 µM) | 17 (≈ 0.0612 µM) | 8 (≈ 0.0288 µM) | 9 (≈ 0.0324 µM) | 12 (≈ 0.0432 µM) | 11 (≈ 0.0396 µM) | 10 (≈ 0.036 µM) | 8 (≈ 0.0288 µM) | 9 (≈ 0.0324 µM) | 4 (≈ 0.0144 µM) |  | 99.9 | 99.9 | 17 (≈ 0.0612 µM) | 
